Results reported in the supplement of paper PMC10307832.

These cell lines were tested with CN1CCC(CC1)OC2=CC(=C(C=C2)NC3=NC=C4C(=N3)N(C(=O)N4C)C5CCCC5)OC [AZ3146] + CS(=O)(=O)CCNCc1ccc(-c2ccc3ncnc(Nc4ccc(OCc5cccc(F)c5)c(Cl)c4)c3c2)o1 [Lapatinib] (partner 2 µM) (assay: relative viability (nuclei count vs DMSO), 5 days (fraction); higher = more cells survive). Conditions: first compound 0.08 µM.
In short: (§1)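 Nuclei were stained with Hoechst during a one-step fixation (final 0.05% Triton X-100, 1% formaldehyde, 1 ug/ml Hoechst) carried out 5 days after dosing, then counted on 4× images. The cells, lung cancer lines in 1536-well plates, had been dosed by pin tool the day after seeding with one drug alone or a fixed anchor-drug dose plus five library-drug doses (not always all listed) in √10 steps. Relative viability is the nuclei count in treated wells divided by that in vehicle wells, and each value is the median of duplicate plates.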

First: NCI-H1395
Second: 201T
The relative viability of the first is lower: 0.853 for the first, 1.03 for the second.

Going from NCI-H1993 to NCI-H1355, the relative viability falls from 0.896 to 0.854.

First: NCI-H2405
Second: NCI-H1437
The relative viability of the first is higher: 1.11 for the first, 0.708 for the second.

Compared with NCI-H661, COR-L 105 is lower in relative viability: 0.661 for the first, 0.357 for the second.

Going from NCI-H1703 to H3255, the relative viability falls from 1.16 to 0.23.

Compared with NCI-H2347, NCI-H1975 is higher in relative viability: 0.853 for the first, 0.922 for the second.

For NCI-H1563, the relative viability was 0.695.

Same assay, conditions: first compound 0.253 µM

First: BEN
Second: NCI-H1395
The relative viability of the first is lower: 0.683 for the first, 0.915 for the second.

Compared with 201T, NCI-H1993 is lower in relative viability: 1.06 for the first, 0.788 for the second.

Compared with IA-LM, NCI-H1355 is lower in relative viability: 0.955 for the first, 0.951 for the second.

Compared with NCI-H1437, NCI-H661 is lower in relative viability: 0.739 for the first, 0.514 for the second.

First: COR-L 105
Second: NCI-H1703
The relative viability of the first is lower: 0.36 for the first, 1.26 for the second.

Compared with H3255, NCI-H2347 is higher in relative viability: 0.216 for the first, 0.832 for the second.

Compared with NCI-H1975, NCI-H1563 is lower in relative viability: 0.95 for the first, 0.881 for the second.

Same assay, conditions: first compound 0.8 µM

Compared with BEN, NCI-H1395 is higher in relative viability: 0.805 for the first, 0.997 for the second.

Going from 201T to NCI-H1993, the relative viability falls from 1 to 0.724.

Going from IA-LM to NCI-H1355, the relative viability rises from 0.718 to 0.986.

Going from NCI-H2405 to NCI-H1437, the relative viability falls from 0.967 to 0.829.

Going from NCI-H661 to COR-L 105, the relative viability falls from 0.559 to 0.317.

Going from NCI-H1703 to H3255, the relative viability falls from 0.953 to 0.186.

Compared with NCI-H2347, NCI-H1975 is lower in relative viability: 0.939 for the first, 0.928 for the second.

NCI-H1563 was tested, and the relative viability was 0.951.

Same assay, conditions: first compound 2.53 µM

First: BEN
Second: NCI-H1395
The relative viability of the first is lower: 0.659 for the first, 1.19 for the second.

Compared with 201T, NCI-H1993 is lower in relative viability: 1.06 for the first, 0.853 for the second.

First: IA-LM
Second: NCI-H1355
The relative viability of the first is lower: 0.72 for the first, 1.03 for the second.

Going from NCI-H2405 to NCI-H1437, the relative viability falls from 1.31 to 0.899.

First: NCI-H661
Second: COR-L 105
The relative viability of the first is higher: 0.537 for the first, 0.341 for the second.

First: NCI-H1703
Second: H3255
The relative viability of the first is higher: 0.892 for the first, 0.267 for the second.

Compared with NCI-H2347, NCI-H1975 is lower in relative viability: 1.04 for the first, 0.933 for the second.

NCI-H1563 gave a relative viability of 0.927.

Same assay, conditions: first compound 8 µM

Going from BEN to NCI-H1395, the relative viability rises from 0.681 to 0.999.

Going from 201T to NCI-H1993, the relative viability falls from 1.06 to 0.779.

First: IA-LM
Second: NCI-H1355
The relative viability of the first is lower: 0.49 for the first, 0.953 for the second.

Compared with NCI-H2405, NCI-H1437 is lower in relative viability: 1.29 for the first, 0.519 for the second.

Compared with NCI-H661, COR-L 105 is lower in relative viability: 0.472 for the first, 0.254 for the second.

Going from NCI-H1703 to H3255, the relative viability falls from 0.372 to 0.245.

Going from NCI-H2347 to NCI-H1975, the relative viability falls from 1.03 to 0.783.

Work on NCI-H1563 yielded a relative viability of 0.873.

Each cell line was assayed with CCOC(=O)CCNc1cc(N2CCc3ccccc3CC2)nc(-c2ccccn2)n1 [GSK-J4] + CS(=O)(=O)N1CCN(Cc2cc3nc(-c4cccc5[nH]ncc45)nc(N4CCOCC4)c3s2)CC1 [Pictilisib] (partner 1 µM) in the same assay as above. Conditions: first compound 0.5 µM.
In short: as §1

Going from BEN to NCI-H1395, the relative viability falls from 0.666 to 0.578.

Compared with 201T, NCI-H1993 is higher in relative viability: 0.653 for the first, 0.834 for the second.

Compared with IA-LM, NCI-H1355 is higher in relative viability: 0.376 for the first, 0.521 for the second.

First: NCI-H2405
Second: NCI-H1437
The relative viability of the first is higher: 0.465 for the first, 0.454 for the second.

Going from NCI-H661 to COR-L 105, the relative viability rises from 0.484 to 0.519.

First: NCI-H1703
Second: H3255
The relative viability of the first is lower: 0.254 for the first, 0.415 for the second.

Going from NCI-H2347 to NCI-H1975, the relative viability falls from 0.623 to 0.279.

For NCI-H1563, the relative viability was 0.695.

Same assay, conditions: first compound 1.581 µM

First: BEN
Second: NCI-H1395
The relative viability of the first is lower: 0.471 for the first, 0.524 for the second.

First: 201T
Second: NCI-H1993
The relative viability of the first is lower: 0.791 for the first, 0.845 for the second.

Compared with IA-LM, NCI-H1355 is higher in relative viability: 0.202 for the first, 0.302 for the second.

Compared with NCI-H2405, NCI-H1437 is lower in relative viability: 0.713 for the first, 0.352 for the second.

Compared with NCI-H661, COR-L 105 is lower in relative viability: 0.463 for the first, 0.414 for the second.

Going from NCI-H1703 to H3255, the relative viability rises from 0.259 to 0.414.

First: NCI-H2347
Second: NCI-H1975
The relative viability of the first is higher: 0.596 for the first, 0.31 for the second.

NCI-H1563 was tested, and the relative viability was 0.719.

Same assay, conditions: first compound 5 µM

Going from NCI-H1395 to 201T, the relative viability rises from 0.544 to 0.726.

First: NCI-H1993
Second: IA-LM
The relative viability of the first is higher: 0.807 for the first, 0.489 for the second.

Compared with NCI-H1355, NCI-H1437 is lower in relative viability: 0.397 for the first, 0.385 for the second.

Going from NCI-H661 to COR-L 105, the relative viability rises from 0.331 to 0.375.

Compared with NCI-H1703, H3255 is higher in relative viability: 0.232 for the first, 0.498 for the second.

Going from NCI-H2347 to NCI-H1563, the relative viability falls from 0.855 to 0.62.

Same assay, conditions: first compound 15.81 µM

Going from BEN to NCI-H1395, the relative viability rises from 0.539 to 0.573.

First: 201T
Second: NCI-H1993
The relative viability of the first is higher: 0.687 for the first, 0.684 for the second.

Going from IA-LM to NCI-H1355, the relative viability rises from 0.251 to 0.418.

First: NCI-H2405
Second: NCI-H1437
The relative viability of the first is higher: 0.708 for the first, 0.435 for the second.

Going from NCI-H661 to COR-L 105, the relative viability rises from 0.339 to 0.402.

Going from NCI-H1703 to H3255, the relative viability rises from 0.195 to 0.412.

Compared with NCI-H2347, NCI-H1975 is lower in relative viability: 0.731 for the first, 0.344 for the second.

NCI-H1563 gave a relative viability of 0.709.

Same assay, conditions: first compound 50 µM

Going from BEN to NCI-H1395, the relative viability rises from 0.33 to 0.518.

Going from 201T to NCI-H1993, the relative viability rises from 0.598 to 0.725.

Going from IA-LM to NCI-H1355, the relative viability rises from 0.0942 to 0.478.

First: NCI-H2405
Second: NCI-H1437
The relative viability of the first is higher: 0.475 for the first, 0.165 for the second.

Going from NCI-H661 to COR-L 105, the relative viability rises from 0.342 to 0.36.

Going from NCI-H1703 to H3255, the relative viability rises from 0.275 to 0.424.

Compared with NCI-H2347, NCI-H1975 is lower in relative viability: 0.494 for the first, 0.402 for the second.

For NCI-H1563, the relative viability was 0.619.

These cell lines were tested with CN1CCC(CC1)OC2=CC(=C(C=C2)NC3=NC=C4C(=N3)N(C(=O)N4C)C5CCCC5)OC [AZ3146] (assay: relative viability (nuclei count vs DMSO), 5 days (fraction); higher = more cells survive). Conditions: 0.08 µM.
In short: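 Lung cancer cell lines in 1536-well plates were exposed by pinning to five library-drug doses (not always all listed) √10 apart, following an overnight hold at 37 °C. MetaXpress counted Hoechst-stained nuclei from 4× images taken after 5 days without medium change. Viability is the median ratio of treated-well to vehicle-well nuclei across plates. Plates required control CV below 25% and at least one doubling.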

Work on NCI-H1395 yielded a relative viability of 0.958.
